US20190201508A1, “METHODS FOR TREATING CANCERS USING ACE INHIBITORS, ARB, OR CELECOXIB AND OLMESARTAN” (Marina Biotech, Inc., priority 2016, published 2019)

Legend:
SUM149-RR tumor cells = assay: Orthotopic human inflammatory breast cancer model SUM149-RR, lymph node metastatic burden (luciferase); type: in vivo, CB-17 SCID mice; conditions: for change in ILN burden versus control (in words): single agents or combination with CEL
Experimental: (§1) Luciferase-tagged SUM149 and MDA-MB-435 cell lines were used to determine the incidence and the burden of locoregional and systemic spread. Mice were monitored twice a week for 9-16 weeks for percent weight loss, tumor volume and survival outcome. Metastatic tumor burden and incidence was measured as luciferase expression in lymph nodes and lungs and normalized to total protein.
(§2) Tumors were monitored 2-3 times per week with digital calipers. Once tumors reached 1500 mm3, the mice were sacrificed. Tumors from MDA-MB-435-Luc and SUM149-RR were snap frozen and ipsilateral lymph nodes and lungs were collected for assessing metastatic burden and incidence by measuring luciferase expression per organ and normalized to total protein. Difference in incidence or burden as compared to the control was assessed by a Fisher exact test, or a Mann-Whitney test.
as §1, with “Methods: Three anti-hypertensive drugs (Lisinopril [LIS], Olmesartan medoxomil [OLM] and Hydrochlorothiazide [HCTZ]) were evaluated for tumor growth suppression and metastatic spread in xenograft models of inflammatory breast cancer/SUM149, melanoma/MDA-MB-435 and glioblastoma/U87. Luciferase-tagged” for “Luciferase-tagged”, “spread. […]” for “spread.”
Seven days post implantation, mice in subgroups of 5 received either saline, LIS (15 mg/kg), OLM (30 mg/kg) or HCTZ (10 mg/kg) for 5 days/wk for 3 weeks.
as §2, with “The tumor was” for “Tumors from MDA-MB-435-Luc and SUM149-RR were”

[1] = test system: inflammatory breast cancer/SUM149, melanoma/MDA-MB-435 and glioblastoma/U87 xenografts; assay: Tumor growth suppression across xenograft models (pooled statements); type: in vivo, mice; conditions: for effect on tumor growth (in words): single agents, cancer models studied (breast cancer, melanoma, glioblastoma)
Experimental: as §1
Subcutaneous melanoma xenograft tumor model: MDA-MB-435-Luc: Female SCID mice were implanted with 4×10^6 MDA-MB-435-Luciferase tumor cells in 50% Matrigel subcutaneously on the left flank.
Orthotopic human inflammatory breast cancer model: SUM149-RR: Female CB-17 SCID mice were implanted in the mammary fat pad with 4×10^6 SUM149-RR tumor cells in 50% Matrigel.
T/C (%) was calculated as the mean RTV (relative tumor volume) of treated tumors (T) divided by the mean RTV of control tumors (C)×100%.
as §2
(§3) Methods: Three anti-hypertensive drugs (Lisinopril [LIS], Olmesartan medoxomil [OLM] and Hydrochlorothiazide [HCTZ]) were evaluated for tumor growth suppression and metastatic spread in xenograft models of inflammatory breast cancer/SUM149, melanoma/MDA-MB-435 and glioblastoma/U87. Luciferase-tagged SUM149 and MDA-MB-435 cell lines were used to determine the incidence and the burden of locoregional and systemic spread. CB-17 SCID mice were implanted either subcutaneously (MDA-MB-435 and U87) or orthotopically (SUM149) with 4×10^6 cancer cells and oral administration of test agents for 3 weeks was initiated on post-tumor inoculation Day 7. Mice were monitored twice a week for 9-16 weeks for percent weight loss, tumor volume and survival outcome. Metastatic tumor burden and incidence was measured as luciferase expression in lymph nodes and lungs and normalized to total protein.
Subcutaneous human melanoma xenograft tumor model: MDA-MB-435-Luciferase: Female SCID mice were implanted with 4×10^6 MDAMB-435-Luc tumor cells in 50% Matrigel subcutaneously on the left flank. Seven days post implantation, tumor-bearing mice in subgroups received either saline, Lisinopril (LIS, 15 mg/kg), Olmesartan (OLM, 30 mg/kg); or Hydrochlorothiazide (HCTZ, 10 mg/kg) for 5 consecutive days for 3 weeks.
Female CB-17 SCID mice were implanted in the mammary fat pad with 4×10^6 SUM149-RR tumor cells in 50% Matrigel. Seven days post implantation, mice in subgroups of 5 received either saline, LIS (15 mg/kg), OLM (30 mg/kg) or HCTZ (10 mg/kg) for 5 days/wk for 3 weeks.
Subcutaneous human U87-MG glioblastoma model: 3×10^6 U87 glioblastoma cells were injected into the right flank of Balb/c nude mice and tumor-bearing (50-250 mm3) mice were randomized into 10 groups (10 mice/group) and the antitumor activities of OLM were evaluated following daily PO administration (30 or 60 mg/kg, QD×21). T/C (%) was calculated as the mean RTV (relative tumor volume) of treated tumors (T) divided by the mean RTV of control tumors (C)×100%.
as §2, with “The tumor was” for “Tumors from MDA-MB-435-Luc and SUM149-RR were”

MDA-MB-435 xenograft = MDA-MB-435 xenograft tumor growth and tumor burden; type: in vivo, CB-17 SCID mice; conditions: MDA-MB-435 model; LIS 15 mg/kg, 5 consecutive days for 3 weeks
Experimental: as §2
as §3, with “CB-17 SCID mice were implanted either subcutaneously (MDA-MB-435 and U87) or orthotopically (SUM149) with 4×10^6 cancer cells and oral administration of test agents for 3 weeks was initiated on post-tumor inoculation Day 7.” left out
Tumors were monitored 2-3 times per week with digital calipers. Once tumors reached 1500 mm3, the mice were sacrificed.

tumor blood vessels (BV) = assay: Tumor blood vessel density and normalization (FIG. 6A/6B); type: in vivo; conditions: control tumors had low BV density and necrosis

## NS(=O)(=O)c1cc2c(cc1Cl)NCNS2(=O)=O [HCTZ, Hydrochlorothiazide]
SUM149-RR tumor cells
  change in ILN burden versus control (in words): not
[1]
  effect on tumor growth (in words): no effect on tumor growth
[1]; listed as HTCZ
  effect on tumor growth (in words): did not show the same effect

## NCCCC[C@H](N[C@@H](CCc1ccccc1)C(=O)O)C(=O)N1CCC[C@H]1C(=O)O [LIS, Lisinopril]
MDA-MB-435 xenograft
  reduction in tumor burden: significant reduction in tumor burden
[1]
  effect on tumor growth (in words): significant inhibition of tumor growth
[1]; listed as Lisinopril
  effect on tumor growth (in words): showed tumor growth suppression
Tumor blood vessels (BV); FIG. 6A, single agents
  effect on tumor blood vessels (BV): no major effect
Tumor blood vessels (BV); FIG. 6B, in combination
  effect on tumor blood vessels (BV): no major effect

## CCCc1nc(C(C)(C)O)c(C(=O)OCc2oc(=O)oc2C)n1Cc1ccc(-c2ccccc2-c2nn[nH]n2)cc1 [OLM, (5-methyl-2-oxo-2H-1,3-dioxol-4-yl)methyl 4-(2-hydroxypropan-2-yl)-2-propyl-1-({4-[2-(2H-1,2,3,4-tetrazol-5-yl)phenyl]phenyl}methyl)-1H-imidazole-5-carboxylate]
SUM149-RR tumor cells; OLM 30 mg/kg alone
  fold decrease in ILN tumor burden versus saline control: 7.1 fold
SUM149-RR tumor cells; OLM 30 mg/kg, saline control 17.6±8.6, p-value=0.01 by Mann-Whitney test
  average tumor burden in the ipsilateral lymph nodes (ILN): 2.4±0.6 ×104 RLU per mg of protein
SUM149-RR tumor cells; OLM versus control 17.6±8.6, P=0.01
  lymph node burden: 2.4±0.6 ×10^4 RLU/mg of protein
SUM149-RR tumor cells
  change in ILN burden versus control (in words): statistically significant decrease in ILN burden
[1]; range over all three xenograft models (SUM149, MDA-MB-435, U87)
  inhibition of tumor growth: 50-61%
[1]
  effect on tumor growth (in words): significant inhibition of tumor growth
[1]; listed as olmesartan
  effect on tumor growth (in words): showed tumor growth suppression
Tumor blood vessels (BV); FIG. 6A, single agents
  effect on tumor blood vessels (BV): facilitated the normalization and stabilization of tumor BVs
Tumor blood vessels (BV); FIG. 6B, in combination
  effect on tumor blood vessels (BV): facilitated the normalization and stabilization of tumor BVs
